Measured values taken from ChEMBL document CHEMBL6127146, “Exploring the Polypharmacological Potential of PCI-27483: A Selective Inhibitor of Carbonic Anhydrases IX and XII” (ACS Med Chem Lett, 2024).

Target: Carbonic anhydrase 3 (Homo sapiens, UniProt P07451)
Sequence (P07451 whole entry): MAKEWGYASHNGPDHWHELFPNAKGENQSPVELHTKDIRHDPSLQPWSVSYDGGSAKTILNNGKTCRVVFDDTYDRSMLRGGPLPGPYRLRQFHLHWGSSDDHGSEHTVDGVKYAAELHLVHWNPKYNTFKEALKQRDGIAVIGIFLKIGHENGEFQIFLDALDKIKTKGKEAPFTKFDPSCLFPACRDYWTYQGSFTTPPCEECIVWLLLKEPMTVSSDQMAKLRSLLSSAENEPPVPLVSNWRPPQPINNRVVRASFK
Description: Inhibition of human CA3 preincubated for 15 mins by phenol red dye based stopped flow CO2 hydration assay

SMILES: N=C(N)c1ccc2nc(-c3cc(CC(=O)N[C@@H](CC(=O)O)C(=O)O)cc(-c4cc(S(N)(=O)=O)ccc4O)c3O)[nH]c2c1 [PCI-27483]
- Ki: > 100 µM
